Measurements taken from US20040171688A1, “Carboxylic acids and derivatives thereof and pharmaceutical compositions containing them” (priority 1997, published 2004).

Columns and labels:
HNF-4α = target: T1, HNF-4α (Rattus norvegicus, UniProt P22449); test: Transfection assay: COS-7 cells cotransfected with (C3P)3-TK-CAT reporter and pSG5-HNF-4α; type: cell-based; design: expressed in transfected cells; host or cells: COS-7; conditions: free fatty acids added to culture medium of COS-7 cells (FIG. 4a)
T1 sequence (P22449 1-464 isoform P22449-2): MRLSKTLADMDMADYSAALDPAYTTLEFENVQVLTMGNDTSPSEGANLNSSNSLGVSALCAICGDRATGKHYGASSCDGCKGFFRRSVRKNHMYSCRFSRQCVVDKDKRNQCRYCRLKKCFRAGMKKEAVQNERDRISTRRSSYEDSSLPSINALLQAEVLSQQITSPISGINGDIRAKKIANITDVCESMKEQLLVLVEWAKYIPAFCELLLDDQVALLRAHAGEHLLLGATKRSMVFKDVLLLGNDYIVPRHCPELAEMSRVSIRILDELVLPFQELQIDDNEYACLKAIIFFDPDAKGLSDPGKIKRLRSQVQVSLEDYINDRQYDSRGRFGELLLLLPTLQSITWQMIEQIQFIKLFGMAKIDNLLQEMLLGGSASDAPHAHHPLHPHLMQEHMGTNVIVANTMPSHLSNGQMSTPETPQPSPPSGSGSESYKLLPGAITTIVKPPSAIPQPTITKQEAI
Description: a. […] Fold induction of CAT activity by transfected HNF-4I is determined by evaluating CAT activity in the presence of pSG5-HNF-4I as compared with pSG5 plasmid and as function of respective fatty acids added to the culture medium as indicated. The figure summarizes 3-4 independent experiments for each fatty acid. Mean ± S.E.
b. […] Fold induction refers to CAT activity in cells incubated with 3,3,12,12-tetramethyl-tetradecanedioic acid (∘), 3,3,14,14-tetramethyl-hexadecanedioic acid (□) and 3,3,16,16-tetramethyl-octadecanedioic acid (Δ) proligands normalized to the activity in cells incubated in the absence of added proligands.
COS-7 cells cotransfected for 6 h with the (C3P)3-TK-CAT reporter plasmid (5 μg) and with either the pSG5-HNF-4α expression plasmid ([…]) or the pSG5 plasmid (0.025 μg) added by calcium phosphate precipitation were cultured in serum free medium with fatty acids (complexed with albumin in a molar ratio of 6:1) added as indicated. β-Galactosidase expression vector pRSGAL (1 μg) added to each precipitate served as an internal control for transfection. The (C3P)3-TK-CAT construct was prepared by inserting a synthetic oligonucleotide encompassing the (−87/−66) Apo CIII promoter sequence (5′-[…]-3′) flanked by HindIII restriction site into pBLCAT2^47 upstream of the −105 bp thymidine kinase promoter. The construct containing three copies of the synthetic oligonucleotide in the direct orientation was selected and confirmed by sequencing.
The intracellular effect of HNF-4α ligands on HNF-4α mediated transcription was evaluated in COS-7 cells cotransfected with an expression vector for HNF-4α and with a CAT reporter plasmid driven by a thymidine kinase promoter and enhanced by one to three C3P copies of the apo CIII gene promoter. Transfected cells were incubated in the presence of free fatty acids and xenobiotic amphipathic carboxylates representing agonistic or antagonistic HNF-4α proligands.

[1] = dietary fatty acid; cited from earlier work
[2] = dietary fatty acid; cited from earlier work; remark: listed apart in the source

Row | effect on HNF-4α dependent transcription (CAT activity) (HNF-4α) | Structure (SMILES) | plasma VLDL-, LDL- and HDL-cholesterol [1] | factor VII content and blood coagulability [2] | blood lipids [1]
1 | dose dependent activation | CCCCCCCCCCCCCC(=O)O [myristic(14:0), myristic(14:0) acid] | increase | – | –
2 | suppressive | CCCCCCCCCCCCCCCCCC(=O)O [stearic(18:0), stearic(18:0) acid] | – | decrease | lowering
